Where “and” joins values, the source holds several entries; their conditions need not be identical. Equal values may be shown once.
Assays:
Rattus norvegicus [1] = species: Rattus norvegicus; assay: Effective dose which produces the desired nonfasting triglyceride levels in high cholesterol fed male Sprgue-Dawley rats.; assay type: functional
Rattus norvegicus [2] = species: Rattus norvegicus; assay: Effective dose which produces the desired total cholesterol levels imale Sprgue-Dawley rats.; assay type: functional
Rattus norvegicus [3] = species: Rattus norvegicus; assay: (§1) Maximum achieved Nonfasted triglycerides reduction relative to vehicle treated control group; assay type: functional
Rattus norvegicus [4] = species: Rattus norvegicus; assay: (§2) Maximum achieved Total cholesterol reduction relative to vehicle treated control group; assay type: functional
[5] = biological target: T1, Peroxisome proliferator-activated receptor gamma (Homo sapiens, UniProt P37231)
T1 sequence (P37231 whole entry): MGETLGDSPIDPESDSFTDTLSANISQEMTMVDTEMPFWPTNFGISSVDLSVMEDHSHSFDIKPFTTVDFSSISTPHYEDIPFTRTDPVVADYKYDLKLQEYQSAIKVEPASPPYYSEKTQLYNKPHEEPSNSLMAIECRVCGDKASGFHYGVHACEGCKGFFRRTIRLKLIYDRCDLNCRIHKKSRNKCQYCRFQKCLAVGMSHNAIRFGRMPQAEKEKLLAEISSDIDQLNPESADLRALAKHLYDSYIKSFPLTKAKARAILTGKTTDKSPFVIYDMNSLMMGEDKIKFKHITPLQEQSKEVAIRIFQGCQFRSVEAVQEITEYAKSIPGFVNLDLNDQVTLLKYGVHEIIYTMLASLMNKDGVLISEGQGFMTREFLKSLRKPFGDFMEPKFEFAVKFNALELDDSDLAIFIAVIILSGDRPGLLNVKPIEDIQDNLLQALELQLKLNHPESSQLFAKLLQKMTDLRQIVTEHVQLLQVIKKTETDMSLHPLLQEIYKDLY
Description: In vitro transactivation using receptor transactivation assay against hPPAR gamma

[6] = Clearance after oral administration; assay type: ADME, organism-based; conditions: in vivo
[7] = Area under plasma concentration time curve after oral administration at a dose 2.2 mg/kg; assay type: ADME, organism-based; parameters: dose 2.2 mg/kg, route oral
[8] = Oral bioavailability; assay type: ADME, organism-based; conditions: eutheria, in vivo
[9] = Maximum plasma concentration after oral administration at a dose 2.2 mg/kg; assay type: ADME, organism-based; parameters: dose 2.2 mg/kg, route oral
[10] = Area under blood glucose time curve after OGTT on the 9th day of treatment; assay type: ADME, tissue-based
Mus musculus [11] = species: Mus musculus; assay: Maximum achieved blood glucose reduction relative to vehicle treated control group; assay type: functional
Mus musculus [12] = species: Mus musculus; assay: Maximum achieved insulin reduction relative to vehicle treated control group; assay type: functional
Mus musculus [13] = species: Mus musculus; assay: Maximum achieved triglycerides reduction relative to vehicle treated control group; assay type: functional
Mus musculus [14] = species: Mus musculus; assay: Effective dose which produces the desired nonfasting blood glucose levels after 7 days in 50% of the treated mice.; assay type: functional; conditions: 168 h
Mus musculus [15] = species: Mus musculus; assay: Effective dose which produces the desired nonfasting insuline levels after 7 days in 50% of the treated male db/db mice.; assay type: functional; conditions: 168 h
Mus musculus [16] = species: Mus musculus; assay: Effective dose which produces the desired nonfasting triglyceride levels after 7 days in 50% of the treated male db/db mice.; assay type: functional; conditions: 168 h
[17] = biological target: T2, Peroxisome proliferator-activated receptor alpha (Homo sapiens, UniProt Q07869); assay: In vitro transactivation using receptor transactivation assay against hPPAR alpha; assay type: functional
T2 sequence (Q07869 whole entry): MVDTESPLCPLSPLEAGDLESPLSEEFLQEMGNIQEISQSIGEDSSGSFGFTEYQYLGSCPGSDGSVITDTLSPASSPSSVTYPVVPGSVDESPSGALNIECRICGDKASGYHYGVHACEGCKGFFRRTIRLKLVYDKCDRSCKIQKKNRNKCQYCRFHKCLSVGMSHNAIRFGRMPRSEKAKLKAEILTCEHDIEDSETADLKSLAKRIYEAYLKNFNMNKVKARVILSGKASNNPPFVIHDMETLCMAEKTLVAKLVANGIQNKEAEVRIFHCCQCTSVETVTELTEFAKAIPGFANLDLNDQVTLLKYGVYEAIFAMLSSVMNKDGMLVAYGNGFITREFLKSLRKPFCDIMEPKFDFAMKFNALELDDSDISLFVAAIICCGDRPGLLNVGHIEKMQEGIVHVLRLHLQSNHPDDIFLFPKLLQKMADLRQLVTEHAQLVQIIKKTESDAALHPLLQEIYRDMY

[18] = Oral half life was reported; assay type: ADME, organism-based; conditions: in vivo
Mus musculus [19] = assay: In vivo % reduction of blood glucose area under curve after oral glucose tolerance test in male db/db mice at 1 mg/kg peroral dose of compound once in a day; assay type: ADME, organism-based; parameters: dose 1 mg/kg, route oral
Mus musculus [20] = assay: In vivo % reduction of blood glucose area under curve after oral glucose tolerance test in male db/db mice at 3 mg/kg peroral dose of compound once in a day; assay type: ADME, organism-based; parameters: dose 3 mg/kg, route oral
Mus musculus [21] = assay: In vivo % reduction of blood glucose area under curve after oral glucose tolerance test in male db/db mice at 1 mg/kg peroral dose of compound thrice a day; assay type: ADME, organism-based; parameters: dose 1 mg/kg, route oral
Mus musculus [22] = assay: In vivo blood glucose area under curve after oral glucose tolerance test in male db/db mice at 0.33 mg/kg peroral dose of compound thrice a day; assay type: ADME, organism-based; parameters: dose 0.33 mg/kg, route oral
Mus musculus [23] = assay: In vivo blood glucose area under curve after oral glucose tolerance test in male db/db mice at 1 mg/kg peroral dose of compound once in a day; assay type: ADME, organism-based; parameters: dose 1 mg/kg, route oral
Mus musculus [24] = assay: In vivo blood glucose area under curve after oral glucose tolerance test in male db/db mice at 1 mg/kg peroral dose of compound thrice a day; assay type: ADME, organism-based; parameters: dose 1 mg/kg, route oral
Mus musculus [25] = assay: In vivo blood glucose area under curve after oral glucose tolerance test in male db/db mice at 3 mg/kg peroral dose of compound once in a day; assay type: ADME, organism-based; parameters: dose 3 mg/kg, route oral
Mus musculus [26] = assay: In vivo % reduction of blood glucose area under curve after oral glucose tolerance test in male db/db mice at 0.33 mg/kg peroral dose of compound thrice a day; assay type: ADME, organism-based; parameters: dose 0.33 mg/kg, route oral
Mus musculus [27] = species: Mus musculus; assay: Nonfasting blood glucose after 7 days treatment in male db/db mice; assay type: functional; conditions: 168 h
Mus musculus [28] = species: Mus musculus; assay: Nonfasting insulin after 7 days treatment in male db/db mice; assay type: functional; conditions: 168 h
Mus musculus [29] = species: Mus musculus; assay: Nonfasting triglycerides after 7 days treatment in male db/db mice; assay type: functional; conditions: 168 h
Mus musculus [30] = assay: In vivo blood glucose level in male db/db mice after administration of 0.33 mg/kg peroral dose of compound thrice a day; assay type: functional; conditions: route oral
Mus musculus [31] = assay: In vivo blood glucose level in male db/db mice after administration of 1 mg/kg peroral dose of compound thrice a day; assay type: functional; conditions: route oral
Mus musculus [32] = assay: In vivo blood glucose level in male db/db mice after administration of 1 mg/kg peroral dose of compound once in a day; assay type: functional; conditions: route oral
Mus musculus [33] = assay: In vivo % reduction of blood glucose level in male db/db mice after administration of 0.33 mg/kg peroral dose of compound thrice a day; assay type: functional; conditions: route oral
Mus musculus [34] = assay: In vivo % reduction of blood glucose level in male db/db mice after administration of 1 mg/kg peroral dose of compound once in a day; assay type: functional; conditions: route oral
Mus musculus [35] = assay: In vivo % reduction of blood glucose level in male db/db mice after administration of 1 mg/kg peroral dose of compound thrice a day; assay type: functional; conditions: route oral
Mus musculus [36] = assay: In vivo % reduction of blood glucose level in male db/db mice after administration of 3 mg/kg peroral dose of compound once in a day; assay type: functional; conditions: route oral
[37] = as §1; assay type: functional
[38] = as §2; assay type: functional
Mus musculus [39] = assay: In vivo blood glucose level in male db/db mice after administration of 3 mg/kg peroral dose of compound once in a day; assay type: functional; conditions: route oral

Description for in vivo: Volume of distribution during steady state

CC(C)(Oc1ccc(CCNC(=O)c2ccc(Cl)cc2)cc1)C(=O)O [BEZAFIBRATE]
ED50 (Rattus norvegicus [1]): 16.5 mg/kg
ED50 (Rattus norvegicus [2]): 16.7 mg/kg
Reduction (Rattus norvegicus [3]): 63%
Reduction (Rattus norvegicus [4]): 74%
EC50 [5]: 73.5 µM

CCO[C@@H](Cc1ccc(OCCn2c3ccccc3c3ccccc32)cc1)C(=O)O
CL/F [6]: 0.75 mL/min/kg
AUC ([7]; plasma, read-out: AUC (converted)): 144000 ng·h/mL
bioavailability [8]: > 100%
Cmax [9]: 4430 ng/mL
AUC ED50 [10]: 0.4 mg/kg
Max reduction (Mus musculus [11]): 58% and 55%
Max reduction (Mus musculus [12]): 85%
Max reduction (Mus musculus [13]): 52%
ED50 (Mus musculus [14]): 0.27 mg/kg
ED50 (Mus musculus [15]): 0.34 mg/kg
ED50 (Mus musculus [16]): 0.52 mg/kg
ED50 (Rattus norvegicus [1]): 0.06 mg/kg
ED50 (Rattus norvegicus [2]): 0.34 mg/kg
Reduction (Rattus norvegicus [3]): 56%
Reduction (Rattus norvegicus [4]): 50%
EC50 [17]: 0.36 µM
half-life [18]: 22.2 h
EC50 [5]: 0.17 µM
Vd (in vivo): 0.73 L/kg

CCO[C@@H](Cc1ccc(OCCN2c3ccccc3Oc3ccccc32)cc1)C(=O)O [RAGAGLITAZAR]
EC50 [17]: 3.21 µM
EC50 [5]: 0.57 µM

CCOC(Cc1ccc(OCC=C2c3ccccc3CCc3ccccc32)cc1)C(=O)O (stereo unspecified)
EC50 [5]: 12.6 µM

CCOC(Cc1ccc(OCCC2Sc3ccccc3Oc3ccccc32)cc1)C(=O)O (stereo unspecified)
EC50 [17]: 9 µM
EC50 [5]: 3.7 µM

CCOC(Cc1ccc(OCCNC2=Nc3ccccc3Sc3ccccc32)cc1)C(=O)O (stereo unspecified)
EC50 [17]: 7.5 µM
EC50 [5]: 9.8 µM

CCOC(Cc1ccc(OCCN2c3ccccc3C=Cc3ccccc32)cc1)C(=O)O (stereo unspecified)
EC50 [17]: 9.5 µM
EC50 [5]: 0.76 µM

CCOC(Cc1ccc(OCC=C2c3ccccc3OCOc3ccccc32)cc1)C(=O)O (stereo unspecified)
EC50 [5]: 3.4 µM

CN(CCOc1ccc(CC2SC(=O)NC2=O)cc1)c1ccccn1 (stereo unspecified) [ROSIGLITAZONE]
CL/F [6]: 2.1 mL/min/kg
AUC ([7]; in vivo): 14600 ng·h/mL
bioavailability [8]: 83%
Cmax ([9]; rat): 4420 ng/mL
AUC ED50 [10]: 0.77 mg/kg
AUC glu reduction (Mus musculus [19]): 14%
AUC glu reduction (Mus musculus [20]): 28%
AUC glu reduction(mM x min) (Mus musculus [21]): 51%
AUC glu (Mus musculus [22]): 2398 mM·min
AUC glu (Mus musculus [23]): 2551 mM·min
AUC glu (Mus musculus [24]): 1423 mM·min
AUC glu (Mus musculus [25]): 2141 mM·min
AUC glu reduction (Mus musculus [26]): 18%
ED50 (Mus musculus [27]): 0.87 mg/kg
ED50 (Mus musculus [28]): 0.07 mg/kg
ED50 (Mus musculus [29]): 0.14 mg/kg
BG (Mus musculus [30]): 11.35 mM
BG (Mus musculus [31]): 13.06 mM
BG (Mus musculus [32]): 16.08 mM
BG reduction (Mus musculus [33]): 47%
BG reduction (Mus musculus [34]): 25%
BG reduction (Mus musculus [35]): 39%
BG reduction (Mus musculus [36]): 45%
Max reduction (Mus musculus [11]): 35% and 16%
Max reduction (Mus musculus [12]): 43%
Max reduction (Mus musculus [13]): 58%
Reduction [37]: 11%
Reduction [38]: 24%
BG (Mus musculus [39]): 11.72 mM

CCOC(Cc1ccc(OCCN(C)C2c3ccccc3CCc3ccccc32)cc1)C(=O)O (stereo unspecified)
EC50 [5]: 1.7 µM

CCOC(Cc1ccc(OCCC2c3ccccc3Oc3ccccc32)cc1)C(=O)O (stereo unspecified)
EC50 [17]: 9.6 µM
EC50 [5]: 0.46 µM

— ChEMBL document CHEMBL1135600, “Novel tricyclic-alpha-alkyloxyphenylpropionic acids: dual PPARalpha/gamma agonists with hypolipidemic and antidiabetic activity” (J Med Chem, 2002)
